Consider 4 compounds from patent US3960859A, “21-Deoxydihydroajmaline derivatives” (VEB Arzneimittelwerk Dresden, priority 1975, dated 1976).

The conditions of data set [1]: background statement; cited from earlier work.
Data set [2] relates to aconitine-induced ventricular extrasystoles. The data set can be described thus: Aconitine test procedures carried out in rats (antiarrhythmic activity). The format is in vivo. The text has this:
(§1) In the procedures the term ED20 designates the dose in mg/kg at which only isolated or sporadic ventricular extrasystoles occur.

The next data set can be described thus: in vivo. The settings on record: for Q: Table 1, ratio not defined in text (equals LD50/ED20).
Source text: as §1

For data set [3], the system named is fibrillation or flutter generated by aconitine. The class given is in vivo. The settings on record: dog.

Structures can show the parent of a compound that is named as a salt.

For the compound `CCC(C)C1CC2NC3CC4(c5ccccc5N(C)C24)C(O)C31` (stereo not shown) [21-deoxydihydroajmaline], the “rhythm regulating / antiarrhythmic activity (in words)” value in data set [1] is listed as “rhythm regulating activity is extensively lost”.
Compound `CC[C@H]1[C@@H]2C[C@H]3[C@@H]4N(C)c5ccccc5[C@]45C[C@@H]([C@H]2[C@H]5O)N3[C@@H]1O` [Ajmaline, ajmaline] displayed an ED20 in data set [2] (Rattus norvegicus) of 2.13 mg/kg. Besides, the “rhythm regulating / antiarrhythmic activity (in words)” value in data set [1] is given as “valuable antiarhythmic properties”. The Q in the data set “in vivo” turned out to be 12.2. For the same compound, in “in vivo” (rat, in vivo), the LD50 was 26 mg/kg.
Regarding `CCC(C)C1CC2C3N(C)c4ccccc4C34CC(C1C4O)N2CCN1CCCCC1` (stereo not drawn) [Example 3, 4-(β-piperidinoethyldeoxydihydroajmaline-dihydrochloride)], the ED20 in data set [2] (Rattus norvegicus) is 0.25 mg/kg. Besides, the side effects entry in data set [3] (Example 3 (0.6 mg/kg)) is recorded as “no side effects”. Further, the “therapeutic effectiveness against aconitine fibrillation or flutter” value in data set [3] (Example 3 at 0.6 mg/kg compared with N-propylajmaline at 0.3 mg/kg) is listed as “about the same therapeutic effectiveness as N-propylajmaline administered in a dose of 0.3 mg/kg”. For the same compound, the Q in “in vivo” is 21.6. In the data set “in vivo” (rat, in vivo), this compound registered an LD50 of 5.4 mg/kg.
Take `CCC[N+]12[C@H](O)[C@@H](CC)[C@@H]3C[C@H]1[C@@H]1N(C)c4ccccc4[C@]14C[C@H]2[C@@H]3[C@H]4O` [N-Propylajmaline, N-propylajmaline]: the ED20 in data set [2] (aconitine test, rats, dose at which only isolated or sporadic ventricular extrasystoles occur) came out at 0.17 mg/kg. Moreover, the “undesirable side effects, share of cases” value in data set [3] (N-propylajmaline (0.3 mg/kg)) is given as “at least 30%”. Besides, in “in vivo” (Table 1, aconitine test procedures in rats, unit not given), the LD50 was 1.4.
